How the values were obtained:
[1] = tested on: human red blood cells (RBCs); assay: Hemolysis of human red blood cells; type: cell-based; conditions: up to 100-fold IC50, maximal concentration examined (100 μM, 1 hr)
Protocol: Fresh human red blood cells (RBCs) were rinsed two times with PBS, followed by centrifugation for 7 min at 2000 rpm and resuspension in PBS. Peptides, at various concentrations, were dissolved in PBS and added to 50 μl of the stock hemolysis of human red blood cell (hRBC) solution in PBS for a final volume of 100 μl (final erythrocyte concentration, 4% (v/v)). The resulting suspension was incubated with agitation for 60 min at 37° C. The samples were then centrifuged at 2000 rpm for 7 min. The release of hemoglobin was monitored by measuring the absorbance of the supernatant at 540 nm. Controls for zero hemolysis (blank) and 100% hemolysis consisted of hRBCs suspended in PBS and PBS with 1% Triton, respectively.
Hemolysis of red blood cells (RBCs) is often used to detect membranolytic activity of peptides. Hemolytic activity was measured by the release of hemoglobin into the media (OD 540 nm). Triton (1% v/v) served as a control for a hemolytic agent. Importantly, the peptide was not hemolytic up to 100-fold more than the IC50 of the peptide, the maximal concentration examined (FIG. 3H).

[2] = In vivo toxicity in naïve mice; design: species or system C57BL mice; conditions: 50 mg/kg i.v., n=3
Protocol: First, the toxicity of the peptide was investigated by injecting naïve C57BL mice i.v. with 50 mg/kg of the peptides. […] Then, C57Bl/6J mice that were induced to develop clinical EAE by immunization with MOG35-55/CFA were given a dose of the peptide that was 100-fold less than the one examined in the toxicity assay, i.e. 10 μg per mouse (0.5 mg/kg), or PBS as a control. On day 10 post immunization, prior to the onset of clinical signs of EAE, the lymph node cells (LNCs) from each treatment group were cultured for 72 h in microtiter wells in triplicate (0.5×10^6/well) in the absence or presence of MOG35-55 (2.5 or 5 μg/ml; SEQ ID NO: 15). [H3] Thymidine was added for the last 18 h. The LNCs were analyzed ex vivo for their recall proliferative response to the immunizing MOG35-55 peptide and for secretion of pro-inflammatory cytokines.

[3] = tested on: T cells (Jurkat T cells, MOG35-55-specific T cells); assay: XTT cytotoxicity assay; type: cell-based, human and murine; conditions: up to maximal concentration examined (20 μM, FIG. 3G)
Protocol: Aliquots of 2.5×10^4 of the cells (from Jurkat E6-1, T-cell line) were distributed onto a 96-well plate (Falcon) in the presence of various peptide concentrations and incubated for 24 h. Wells in the last two columns served as blank (medium only), and 100% survival controls (cells and medium only), respectively. After incubation, the XTT reaction solution benzene sulfonic acid hydrate and N-methyl dibenzopyrazine methyl sulfate, mixed in a proportion of 50:1, was added for 2 more hr. Optical density was read at a 450-nm wavelength in an enzyme-linked immunoabsorbent assay plate reader. LC50 (the concentration at which 50% of the cells die) was determined relative to the control, 2.5×10^4 cells in medium. All assays were performed in duplicate.
The viability of the cells was analyzed by an XTT cytotoxicity assay. The peptide was not toxic to T cells up to 20-fold more than the IC50 of the peptide, the maximal concentration examined (FIG. 3G).

CC[C@H](C)[C@H](NC(=O)[C@H](CCC(N)=O)NC(=O)[C@H](CCC(=O)O)NC(=O)[C@H](CC(C)C)NC(=O)[C@H](CO)NC(=O)[C@H](CCCCN)NC(=O)[C@H](CC(N)=O)NC(=O)[C@@H](N)CO)C(=O)N[C@@H](Cc1c[nH]c2ccccc12)C(=O)N[C@@H](CC(N)=O)C(=O)N[C@@H](Cc1c[nH]cn1)C(=O)N[C@H](C(=O)N[C@H](C(=O)N[C@@H](Cc1c[nH]c2ccccc12)C(=O)N[C@@H](CCSC)C(=O)N[C@@H](CCC(=O)O)C(=O)N[C@@H](Cc1c[nH]c2ccccc12)C(=O)N[C@@H](CC(=O)O)C(N)=O)[C@@H](C)O)[C@@H](C)O [PEP 6, SNKSLEQIWNHTTWMEWD]
hemolytic activity [1]: not hemolytic
toxic effect in mice [2]: No toxic effect
toxicity to T cells (viability) [3]: not toxic
